SMILES strings stand for the structures. pIC50: −log10 of the molar value.

One assay has as its target MTH1 (Homo sapiens, UniProt P36639). The assay is described as follows: MTH1 enzymatic assay and IC50 value determination (malachite green, 96- and 384-well format). In kind it is biochemical. The note with it: hydrolysis of dGTP (100 μM), MTH1 6 nM, pyrophosphatase-coupled malachite green, 15 minutes at 22° C. The procedure: MTH1 Enzymatic Assay and IC50 Value Determination
MTH1 catalyzes the hydrolysis of dGTP to dGMP and PPi. By coupling the reaction to pyrophosphatase added in excess PPi is converted to Pi that can be detected by using the malachite green assay reagent. Two different formats were used for IC50 determinations in the enzymatic assay, 96- and 384-well format. 96-Well Method:
Briefly, the compound to be analyzed is diluted in DMSO in a 1:3 dilution series generating 12 different compound concentrations giving a final DMSO concentration of 1% in the assay well. MTH1 diluted in assay buffer (100 mM Tris-acetate, 40 mM NaCl, 10 mM magnesium acetate, 1 mM DTT and 0.005% Tween 20) fortified with E. coli pyrophosphatase (0.2 U/ml) is added to a final concentration of 6 nM. dGTP diluted in assay buffer is added to a final concentration of 100 μM. The reaction mixture is incubated for 15 minutes at 22° C. To 100 μl reaction mixture, 25 μl Malachite green assay regent (0.095% Malachite green in 17% H2SO4, 1.5% Ammonium molybdate, 0.17% Tween 20) is added, followed by incubation with shaking for 15 minutes at 22° C. The absorbance of the assay plate is read at 630 nm using a Hidex Sense Multilabel plate reader. The IC50 value is determined by fitting a dose response curve to the data points using nonlinear regression analysis and the equation Y=Bottom+(Top−Bottom)/(1+10^((Log IC50−X)*HillSlope)), where Y is the read absorbance at 630 nm and X is log [compound].
The compounds to be tested are nano-dispensed, in 11 concentrations, directly in assay plates, with a final DMSO concentration <1%. The protocol and the reaction mixture are the same as for the 96-well assay, with a total reaction volume of 50 μl/well to which 10 μl of Malachite green reagent is added. All additions to the assay plates are made with multidrop.
Usually pIC50 stands for the negative decadic logarithm of the IC50, by convention in mol/L. Turning to `Cc1cccc(-c2cc(NCCNc3ccc(S(C)(=O)=O)nc3)nc(N)n2)c1C` [Example 13, 6-(2,3-dimethylphenyl)-4-N-{2-[(6-methanesulfonylpyridin-3-yl)amino]ethyl}pyrimidine-2,4-diamine], the pIC50 was > 6.70.
For `COC(=O)c1cc(C)nc(NCCNc2cc(-c3cccc(C)c3C)nc(N)n2)n1` [Example 50, methyl 2-[(2-{[2-amino-6-(2,3-dimethylphenyl)pyrimidin-4-yl]amino}ethyl)amino]-6-methylpyrimidine-4-carboxylate], the pIC50 was > 6.70.
On the same count and under the same terms, with `CC(C)C(=O)N1CC=C(c2cc(NCCc3ccc(S(N)(=O)=O)cc3)nc(N)n2)CC1` [Example 136, 4-[2-({2-amino-6-[1-(2-methylpropanoyl)-1,2,3,6-tetrahydropyridin-4-yl]pyrimidin-4-yl}amino)ethyl]benzene-1-sulfonamide] the figure was > 6.70.
Still for that read-out and setting: under `Cc1cccc(-c2cc(NCCNc3ncnc4[nH]cnc34)nc(N)n2)c1C` [Example 51, 6-(2,3-dimethylphenyl)-4-N-{2-[(9H-purin-6-yl)amino]ethyl}pyrimidine-2,4-diamine] stands > 6.70.
On the same count and under the same terms, with `Cc1cccc(-c2cc(NCCNc3ccc(C(N)=O)cn3)nc(N)n2)c1C` [Example 5, 6-[(2-{[2-amino-6-(2,3-dimethylphenyl)pyrimidin-4-yl]amino}ethyl)amino]pyridine-3-carboxamide] the figure was > 6.70; with `Cc1c(Cl)cccc1-c1cc(NCCOc2ccc(-c3nn[nH]n3)cc2)nc(N)n1` [Example 202, 6-(3-chloro-2-methylphenyl)-N4-{2-[4-(2H-1,2,3,4-tetrazol-5-yl)phenoxy]ethyl}pyrimidine-2,4-diamine], > 6.70.
With `Cc1cccc(-c2cc(NCCNc3cncc(S(N)(=O)=O)c3)nc(N)n2)c1C` [Example 14, 5-[(2-{[2-amino-6-(2,3-dimethylphenyl)pyrimidin-4-yl]amino}ethyl)amino]pyridine-3-sulfonamide], the negative-log IC50 (pIC50) is > 6.70.
As to `CC(C)(C)OC(=O)N1CC=C(c2cc(NCCc3ccc(S(C)(=O)=O)cc3)nc(N)n2)CC1` [Example 129, tert-butyl 4-(2-amino-6-{[2-(4-methanesulfonylphenyl)ethyl]amino}pyrimidin-4-yl)-1,2,3,6-tetrahydropyridine-1-carboxylate], the pIC50 was > 6.70.
Turning to `Nc1nc(NCCc2ccc(S(N)(=O)=O)cc2)cc(C2CCCCCC2)n1` [Example 134, 4-{2-[(2-amino-6-cycloheptylpyrimidin-4-yl)amino]ethyl}benzene-1-sulfonamide], the pIC50 was > 6.70.
The same measure, in the same setting: under `Nc1nc(NCCc2ccc(S(N)(=O)=O)cc2)cc(C2=CCN(C(=O)C3CCCC3)CC2)n1` [Example 139, 4-(2-{[2-amino-6-(1-cyclopentanecarbonyl-1,2,3,6-tetrahydropyridin-4-yl)pyrimidin-4-yl]amino}ethyl)benzene-1-sulfonamide] stands > 6.70; under `Cc1c(Cl)cccc1-c1cc(NCC(O)c2ccc(S(C)(=O)=O)cc2)nc(N)n1` (centres unmarked) [Example 215, 2-(2-amino-6-(3-chloro-2-methylphenyl)pyrimidin-4-ylamino)-1-(4-(methylsulfonyl)phenyl)ethanol], > 6.70.
Same read-out and setting: with `Nc1nc(NCCc2ccc(S(N)(=O)=O)cc2)cc(-c2cccc3[nH]ccc23)n1` [Example 69, 4-(2-{[2-amino-6-(1H-indol-4-yl)pyrimidin-4-yl]amino}ethyl)benzene-1-sulfonamide] the figure was > 6.70; with `CC(=O)Nc1ccc(NCCNc2cc(-c3cc(C)c(F)cc3C)nc(N)n2)nc1` [Example 11, N-{6-[(2-{[2-amino-6-(4-fluoro-2,5-dimethylphenyl)pyrimidin-4-yl]amino}ethyl)amino]pyridin-3-yl}acetamide], > 6.70.
The same measure, in the same setting: under `Nc1nc(NCCc2ccc(S(N)(=O)=O)cc2)cc(-c2cccc(O)c2)n1` [Example 27, 4-(2-{[2-amino-6-(3-hydroxyphenyl)pyrimidin-4-yl]amino}ethyl)benzene-1-sulfonamide] stands > 6.70; under `CS(=O)(=O)N1CC=C(c2cc(NCCc3ccc(S(N)(=O)=O)cc3)nc(N)n2)CC1` [Example 137, 4-(2-{[2-amino-6-(1-methanesulfonyl-1,2,3,6-tetrahydropyridin-4-yl)pyrimidin-4-yl]amino}ethyl)benzene-1-sulfonamide], > 6.70.
Regarding `Cc1cc(-c2cc(NCCNc3ccc(NS(C)(=O)=O)cn3)nc(N)n2)c(C)cc1F` [Example 12, N-{6-[(2-{[2-amino-6-(4-fluoro-2,5-dimethylphenyl)pyrimidin-4-yl]amino}ethyl)amino]pyridin-3-yl}methanesulfonamide], the negative-log IC50 (pIC50) is > 6.70.
Still for that read-out and setting: with `CC(=O)N1CC=C(c2cc(NCCc3ccc(S(N)(=O)=O)cc3)nc(N)n2)CC1` [Example 135, 4-(2-{[6-(1-acetyl-1,2,3,6-tetrahydropyridin-4-yl)-2-aminopyrimidin-4-yl]amino}ethyl)benzene-1-sulfonamide] the figure was > 6.70.
Same read-out and setting: under `Cc1cccc(-c2cc(NCCNc3nc(N)nc4[nH]cnc34)nc(N)n2)c1C` [Example 45, 4-N-{2-[(2-amino-9H-purin-6-yl)amino]ethyl}-6-(2,3-dimethylphenyl)pyrimidine-2,4-diamine] stands > 6.70.
Turning to `Nc1nc(NCCc2ccc(S(N)(=O)=O)cc2)cc(-c2cccc(Cl)c2CO)n1` [Example 218, 4-(2-(2-Amino-6-(3-chloro-2-(hydroxymethyl)phenyl)pyrimidin-4-ylamino)ethyl)benzenesulfonamide], the negative logarithm of the IC50 (pIC50) was > 6.70.
Same read-out and setting: under `CS(=O)(=O)c1ccc(CCNc2cc(-c3cccc(Cl)c3CO)nc(N)n2)cc1` [Example 217, (2-(2-Amino-6-(4-(methylsulfonyl)phenethylamino)pyrimidin-4-yl)-6-chlorophenyl)methanol] stands > 6.70; under `Cc1c(Cl)cccc1-c1cc(NCCc2cccc(C(N)=O)c2)nc(N)n1` [Example 88, 3-[2-[[2-amino-6-(3-chloro-2-methyl-phenyl)pyrimidin-4-yl]amino]ethyl]benzamide], > 6.70.
On the same count and under the same terms, under `Cc1c(Cl)cccc1-c1cc(NCCc2ccc(C(=O)O)cc2)nc(N)n1` [Example 9, 4-(2-{[2-amino-6-(3-chloro-2-methylphenyl)pyrimidin-4-yl]amino}ethyl)benzoic acid] stands > 6.70; under `COc1c(Cl)ccc(-c2cc(NCCc3ccc(S(N)(=O)=O)cc3)nc(N)n2)c1Cl` [Example 99, 4-[2-[[2-amino-6-(2,4-dichloro-3-methoxy-phenyl)pyrimidin-4-yl]amino]ethyl]benzenesulfonamide], > 6.70.
Same read-out and setting: with `Nc1nc(NCCc2ccc(S(N)(=O)=O)cc2)cc(-c2csc3ccccc23)n1` [Example 102, 4-[2-[[2-amino-6-(benzothiophen-3-yl)pyrimidin-4-yl]amino]ethyl]benzenesulfonamide] the figure was > 6.70; with `NC(=O)c1ccc(CCNc2cc(-c3cccc(Cl)c3F)nc(N)n2)cc1` [Example 80, 4-(2-{[2-amino-6-(3-chloro-2-fluorophenyl)pyrimidin-4-yl]amino}ethyl)benzamide], > 6.70; with `C[S+]([O-])c1ccc(NC(=O)NCCCCNc2cc(-c3cccc(Cl)c3Cl)nc(N)n2)cc1` (centres unmarked) [Example 7, 3-(4-{[2-amino-6-(2,3-dichlorophenyl)pyrimidin-4-yl]amino}butyl)-1-(4-methanesulfinylphenyl)urea], > 6.70.
For `COc1cc(C)c(-c2cc(NCCc3ccc(S(N)(=O)=O)cc3)nc(N)n2)cc1Cl` [Example 68, 4-(2-{[2-amino-6-(5-chloro-4-methoxy-2-methylphenyl)pyrimidin-4-yl]amino}ethyl)benzene-1-sulfonamide], the pIC50 was > 6.70.
Same read-out and setting: with `Cc1c(-c2cc(NCCc3ccc(S(N)(=O)=O)cc3)nc(N)n2)cccc1C(F)(F)F` [Example 197, 4-[2-({2-amino-6-[2-methyl-3-(trifluoromethyl)phenyl]pyrimidin-4-yl}amino)ethyl]benzene-1-sulfonamide] the figure was > 6.70.

The next assay deals with cancer cell. Kind of assay: Cell viability assay (resazurin). Format: cell-based. The note with it: 72 h; 3 days with compound, resazurin fluorescence; cell line not named. As to the method: The utility of the compounds of the present invention can be illustrated, for example, by their activity in vitro in the cancer cell clonogenic and/or viability assay described below. The link between activity in tumor cell clonogenic assay and anti-tumor activity in the clinical setting has been well established in the art (e.g. see ref Silverstini et al Stem Cells 1993, 11(6), 258-35).
Cells are seeded into 96 well plates (1000-3000 cells/well) in DMEM GlutaMAX™ or other suitable media dependent on cell line and incubated overnight in 5% CO2, 37° C. Thereafter cells are treated with compound or vehicle and left in incubator for 3 days until staining with resazurin. Cells are incubated in resazurin (diluted in suitable media) at 37° C. for 2 hours before measuring the fluorescence (Ex544/Em590).
The compounds to be tested are nano-dispensed in 11 concentrations, directly in 384-well cell plates, with a final DMSO concentration <1%. Cells are seeded in cell plates, pre-dispensed with compounds, 50 μl/well (600-1200 cells/well). After 3 days culture in 5% CO2, 37° C., resazurin diluted in PBS is added, 10 μl/well, and cells are incubated 3 hours before measuring fluorescence (Ex544/Em590).
For orientation: Alamar Blue is a resazurin reagent that responds to reducing activity.
In the case of `Cc1cccc(-c2cc(NCCNc3ccc(S(C)(=O)=O)nc3)nc(N)n2)c1C` [Example 13, 6-(2,3-dimethylphenyl)-4-N-{2-[(6-methanesulfonylpyridin-3-yl)amino]ethyl}pyrimidine-2,4-diamine], the negative logarithm of the IC50 (pIC50) was > 6.30.

Values taken from patent US10179790B2 (THOMAS HELLEDAYS STIFTELSE FOR MEDICINSK FORSKNING, priority 2014, dated 2019).
